Reference: ChEMBL document CHEMBL4038294, “Divergent synthesis of kinase inhibitor derivatives, leading to discovery of selective Gck inhibitors” (Bioorg Med Chem Lett, 2017)

What was measured:
[1] = biological target: Tyrosine-protein kinase SYK (Homo sapiens) (UniProt P43405); test: Inhibition of human wild type partial length SYK (D354 to N635 residues) expressed in bacterial expression system at 1 uM by KINOMEScan assay relative to control
[2] = biological target: T1, Mitogen-activated protein kinase kinase kinase kinase 2 (Homo sapiens) (UniProt Q12851); test: Inhibition of human wild type GCK (M1 to G318 residues) expressed in mammalian expression system at 1 uM by KINOMEScan assay relative to control
T1 sequence (whole entry): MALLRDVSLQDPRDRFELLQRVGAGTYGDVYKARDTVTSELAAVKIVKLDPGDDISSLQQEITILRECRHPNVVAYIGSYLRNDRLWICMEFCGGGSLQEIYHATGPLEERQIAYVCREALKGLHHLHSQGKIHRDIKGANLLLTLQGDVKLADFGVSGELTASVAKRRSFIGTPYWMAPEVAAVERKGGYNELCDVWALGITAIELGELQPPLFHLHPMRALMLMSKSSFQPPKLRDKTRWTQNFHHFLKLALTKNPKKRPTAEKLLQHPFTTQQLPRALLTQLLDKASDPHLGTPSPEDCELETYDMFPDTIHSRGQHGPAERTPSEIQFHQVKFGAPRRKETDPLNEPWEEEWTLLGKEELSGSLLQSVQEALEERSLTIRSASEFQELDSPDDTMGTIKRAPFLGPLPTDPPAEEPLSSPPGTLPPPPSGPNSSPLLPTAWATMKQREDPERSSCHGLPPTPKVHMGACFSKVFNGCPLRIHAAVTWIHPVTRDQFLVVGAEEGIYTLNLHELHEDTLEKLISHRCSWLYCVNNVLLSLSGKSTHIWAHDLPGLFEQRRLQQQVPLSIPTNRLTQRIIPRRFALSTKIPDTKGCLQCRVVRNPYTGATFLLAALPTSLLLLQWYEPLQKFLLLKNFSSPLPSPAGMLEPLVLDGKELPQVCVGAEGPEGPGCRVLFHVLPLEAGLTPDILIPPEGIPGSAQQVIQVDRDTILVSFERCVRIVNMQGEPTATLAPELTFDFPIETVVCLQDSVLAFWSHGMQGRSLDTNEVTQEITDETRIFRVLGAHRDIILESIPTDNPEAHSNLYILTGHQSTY

[3] = biological target: T2, Mitogen-activated protein kinase kinase kinase kinase 2 (Homo sapiens, UniProt Q12851); test: Binding affinity to human wild type GCK (M1 to G318 residues) expressed in mammalian expression system by KINOMEScan assay
T2 sequence (Q12851 whole entry): T1 sequence (whole entry)

Structure (SMILES) | inhibition [1] | inhibition [2] | Kd [3]
CCCCOc1ccc(-c2cc3nccn3c(Nc3ncccc3C(N)=O)n2)cc1 | 4% | 47% | 
CCCOc1ccc(-c2cc3nccn3c(Nc3ncccc3C(N)=O)n2)cc1 | 51% | 86% | 
CNC(=O)c1cccnc1Nc1cc(-c2ccc(OC)cc2)cc2[nH]ccc12 | 0% | 2% | 
CCCCNC(=O)c1cccnc1Nc1nc(-c2ccccc2)cc2nccn12 | 8% | 8% | 
CCC(C)NC(=O)c1cccnc1Nc1nc(-c2ccccc2)cc2nccn12 (stereo not given) | 1% | 29% | 
COc1ccccc1-c1cc2nccn2c(Nc2ncccc2C(N)=O)n1 | 61% | 100% | 
Cc1ccc(-c2cc3nccn3c(Nc3ncccc3C(N)=O)n2)cc1 | 58% | 99.2% | 
O=C(NCc1ccccc1)c1cccnc1Nc1nc(-c2ccccc2)cc2nccn12 | 0% | 2% | 
NC(=O)c1cccnc1Nc1nc(-c2ccccc2)cc2nccn12 | 73% | 99.5% | 
CCCNC(=O)c1cccnc1Nc1nc(-c2ccccc2)cc2nccn12 | 5% | 16% | 
CN(C)C(=O)c1cccnc1Nc1nc(-c2ccccc2)cc2nccn12 | 10% | 58% | 
COc1cc(OC)cc(-c2cc3nccn3c(Nc3ncccc3C(N)=O)n2)c1 | 80% | 100% | 
COc1ccc(-c2cccc(-c3cc4nccn4c(Nc4ncccc4C(N)=O)n3)c2)cc1 | 5% | 84% | 220 nM
Cc1ccccc1-c1cc2nccn2c(Nc2ncccc2C(N)=O)n1 | 11% | 94.7% | 100 nM
COc1ccc(-c2cc3nccn3c(Nc3ncccc3C(N)=O)n2)cc1OC | 85% | 100% | 
COc1ccc(-c2cc3nccn3c(Nc3ncccc3C(N)=O)n2)c(OC)c1 | 80% | 100% | 
NC(=O)c1cccnc1Nc1nc(-c2ccc3c(c2)OCO3)cc2nccn12 | 24% | 94.3% | 49 nM
CNC(=O)c1cccnc1Nc1cc(-c2ccccc2)cc2[nH]ccc12 | 1% | 29% | 

The remaining lines, values ahead:

inhibition [1] | inhibition [2] | Kd [3] | Structure (SMILES)
9% | 1% |  | CNC(=O)c1cccnc1Nc1nc(-c2ccc3c(c2)OCO3)cc2nccn12
30% | 24% |  | CNC(=O)c1cccnc1Nc1nc(-c2ccccc2)cc2nccn12
0% | 0% |  | CC(C)NC(=O)c1cccnc1Nc1nc(-c2ccccc2)cc2nccn12
19% | 20% |  | CCNC(=O)c1cccnc1Nc1nc(-c2ccccc2)cc2nccn12
1% | 0% |  | CNC(=O)c1cccnc1Nc1nc(-c2cccc(OC)c2)cc2nccn12
0% | 0% |  | CNC(=O)c1cccnc1Nc1nc(-c2ccc(OC)c(OC)c2)cc2nccn12
37% | 97.2% | 59 nM | COc1cccc(-c2cc3nccn3c(Nc3ncccc3C(N)=O)n2)c1
74% | 100% |  | Cc1cccc(-c2cc3nccn3c(Nc3ncccc3C(N)=O)n2)c1
59% | 99.1% |  | COc1ccc(-c2cc3nccn3c(Nc3ncccc3C(N)=O)n2)cc1
0% | 1% |  | CNC(=O)c1cccnc1Nc1nc(-c2ccc(OC)cc2)cc2nccn12
